Positions of bridges follow the written chain, without caps; N, C: chain ends. Non-standard residues stand in square brackets, D forms with d. Residues, ends and D or L forms follow the SMILES beside them.

The test concerns the target T1, RSV-B/IZN45 (Human respiratory syncytial virus B, UniProt O36634).
T1 construct: N-trimer Mimics Synthesized; made in house; host or cells: chemical peptide synthesis
As to the kind of experiment: biochemical. The format is binding. To be noted: synthesized peptide; RSV-B/IZN45; KD determined by SPR. From the text: IZN45 N-trimer mimic comprises the IZ domain, a highly soluble, designed coiled-coil that helps solubilize the N-trimer, along with the C-terminal (bottom) 45 residues of the RSV N-trimer. IZN45 encompasses the full ordered portion of the N-trimer except for three N-terminal residues (removed to maintain a continuous heptad repeat with the IZ domain). The interactions between 35-residue RSV C-peptides, T108 and T118 (Lambert et al., 1996, Proc. Natl. Acad. Sci. USA 93:2186-2191), and IZN45 was examined by surface plasmon resonance (SPR). SPR is a gold standard assay to measure the kinetics and affinity of biological interactions. […] The Biotinylated L-form of RSV target IZN45 was captured onto one lane of a NeutrAvidin coated SPR chip. A mutant version of IZN45 containing four mutated residues along the N-trimer groove designed to disrupt binding (IZN45 Full Mut, negative control) was captured onto a separate lane of the NeutrAvidin chip. T118, corresponding to the C-terminal portion of the RSV F ectodomain, which is known to interact with the RSV N-trimer groove, was flowed over the various surfaces. […] The surfaces were regenerated with a detergent (0.1% SDS) after each injection of analyte. Various concentrations of T118 were measured in duplicate or triplicate injections. D-peptide interactions with IZN45 and IZN45-Full Mut surfaces were also measured using this method.
Peptides from the ‘winning’ phage clones from each library were synthesized as D-peptides. If solubility of the peptides was limited, N- or C-terminal charged residue(s) (e.g., lysine) were attached as necessary as previously described for HIV peptides in Eckert et al., 1999, Cell 99:103-15, incorporated by reference in its entirety. Binding affinity and kinetics of the D-peptide inhibitors to the IZN45 and IZN45 mutants was characterized by SPR (Biacore 3000), using methods as described in Welch et al., 2007, Proc. Natl. Acad. Sci. USA 104:16828-33, incorporated by reference in its entirety.

T1 sequence (O36634 163-207, added parts left off): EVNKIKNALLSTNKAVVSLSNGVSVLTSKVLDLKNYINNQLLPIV

Molecule `CC[C@@H](C)[C@H]1NC(=O)[C@@H](CCCCN)NC(=O)[C@H](NC(=O)[C@@H](C)NC(=O)CNC(C)=O)CSSC[C@H](C(=O)N[C@H](C)C(=O)N[C@H](C)C(=O)NCC(=O)NCC(N)=O)NC(=O)[C@@H](CC(=O)O)NC(=O)[C@@H](Cc2c[nH]cn2)NC(=O)[C@@H](Cc2c[nH]c3ccccc23)NC(=O)[C@@H](Cc2c[nH]cn2)NC(=O)[C@@H](Cc2ccccc2)NC(=O)[C@@H](CC(C)C)NC(=O)[C@@H](CC(=O)O)NC(=O)[C@@H](Cc2c[nH]cn2)NC1=O` [Ac-CX10C-119-GG] (Ac-G[dA][dC][dK][dI][dH][dD][dL][dF][dH][dW][dH][dD][dC][dA][dA]GG-NH2; disulfide 3-14) had a Kd of 30 µM. Take `CC[C@@H](C)[C@H]1NC(=O)[C@@H](CCCCN)NC(=O)[C@H](NC(=O)[C@@H](C)NC(=O)CNC(C)=O)CSSC[C@H](C(=O)N[C@H](C)C(=O)N[C@H](C)C(N)=O)NC(=O)[C@@H](CC(=O)O)NC(=O)[C@@H](Cc2c[nH]cn2)NC(=O)[C@@H](Cc2c[nH]c3ccccc23)NC(=O)[C@@H](Cc2c[nH]cn2)NC(=O)[C@@H](Cc2ccccc2)NC(=O)[C@@H](CC(C)C)NC(=O)[C@@H](CC(=O)O)NC(=O)[C@@H](Cc2c[nH]cn2)NC1=O` [Ac-CX10C-119] (Ac-G[dA][dC][dK][dI][dH][dD][dL][dF][dH][dW][dH][dD][dC][dA][dA]-NH2; disulfide 3-14): the Kd was 280 µM. The figure for `CC[C@@H](C)[C@@H](NC(C)=O)C(=O)N[C@H](CO)C(=O)N[C@H](CC(C)C)C(=O)N1CCC[C@@H]1C(=O)N[C@@H](C(=O)N1CCC[C@@H]1C(=O)N[C@@H](C(=O)N[C@H](Cc1c[nH]c2ccccc12)C(=O)N[C@H](Cc1c[nH]c2ccccc12)C(=O)N1CCC[C@@H]1C(=O)N[C@H](CO)C(=O)N[C@@H](C(=O)NCC(=O)NCC(N)=O)[C@H](C)O)[C@H](C)O)[C@H](C)O` [Ac-X12-45-GG] (Ac-[dI][dS][dL][dP][dT][dP][dT][dW][dW][dP][dS][dT]GG-NH2) is 25 µM; for `CC[C@@H](C)[C@@H](NC(C)=O)C(=O)N[C@H](CO)C(=O)N[C@H](CC(C)C)C(=O)N1CCC[C@@H]1C(=O)N[C@@H](C(=O)N1CCC[C@@H]1C(=O)N[C@@H](C(=O)N[C@H](Cc1c[nH]c2ccccc12)C(=O)N[C@H](Cc1c[nH]c2ccccc12)C(=O)N1CCC[C@@H]1C(=O)N[C@H](CO)C(=O)N[C@@H](C(=O)NCC(=O)N[C@H](CCCCN)C(N)=O)[C@H](C)O)[C@H](C)O)[C@H](C)O` [Ac-X12-45-GK] (Ac-[dI][dS][dL][dP][dT][dP][dT][dW][dW][dP][dS][dT]G[dK]-NH2) it is 23 µM.

On to `CC[C@@H](C)[C@@H](NC(=O)[C@H](NC(=O)[C@@H](CCCCN)NC(=O)[C@@H](CO)NC(C)=O)C(C)C)C(=O)N[C@H](CC(C)C)C(=O)N1CCC[C@@H]1C(=O)N[C@H](CCC(=O)O)C(=O)N1CCC[C@@H]1C(=O)N[C@H](Cc1ccccc1)C(=O)N[C@H](Cc1c[nH]c2ccccc12)C(=O)N[C@H](Cc1c[nH]c2ccccc12)C(=O)N1CCC[C@@H]1C(=O)NCC(=O)NCC(N)=O` [Ac-X12-47-GG] (Ac-[dS][dK][dV][dI][dL][dP][dE][dP][dF][dW][dW][dP]GG-NH2), for which the Kd was 15 µM. As for `CSCC[C@@H](NC(=O)[C@@H](Cc1c[nH]c2ccccc12)NC(=O)[C@@H](Cc1c[nH]c2ccccc12)NC(=O)[C@@H](Cc1ccc(O)cc1)NC(=O)[C@@H](CCCCN)NC(=O)[C@@H](CC(C)C)NC(=O)[C@@H](CO)NC(C)=O)C(=O)N[C@H](CCC(=O)O)C(=O)N[C@H](CCC(=O)O)C(=O)N[C@H](CC(C)C)C(=O)N1CCC[C@@H]1C(=O)N[C@H](CC(C)C)C(=O)N1CCC[C@@H]1C(=O)N[C@H](CCCCN)C(=O)N[C@H](Cc1c[nH]c2ccccc12)C(=O)N[C@H](Cc1c[nH]c2ccccc12)C(=O)NCC(=O)NCC(N)=O` [Ac-X16-18-GG] (Ac-[dS][dL][dK][dY][dW][dW][dM][dE][dE][dL][dP][dL][dP][dK][dW][dW]GG-NH2), binding was put at a Kd of 5.4 µM.

In turn, `CSCC[C@@H](NC(=O)[C@@H](Cc1c[nH]c2ccccc12)NC(=O)[C@@H](Cc1c[nH]c2ccccc12)NC(=O)[C@@H](Cc1ccc(O)cc1)NC(=O)[C@@H](CCCCN)NC(=O)[C@@H](CC(C)C)NC(=O)[C@@H](CO)NC(C)=O)C(=O)N[C@H](CCC(=O)O)C(=O)N[C@H](CCC(=O)O)C(=O)N[C@H](CC(C)C)C(=O)N1CCC[C@@H]1C(=O)N[C@H](CC(C)C)C(=O)N1CCC[C@@H]1C(=O)N[C@H](CCCCN)C(=O)N[C@H](Cc1c[nH]c2ccccc12)C(=O)N[C@H](Cc1c[nH]c2ccccc12)C(N)=O` [Ac-X16-18] (Ac-[dS][dL][dK][dY][dW][dW][dM][dE][dE][dL][dP][dL][dP][dK][dW][dW]-NH2) registered a Kd of 11 µM.

`CC(C)C[C@H]1NC(=O)[C@@H](CC(=O)O)NC(=O)[C@@H](Cc2c[nH]c3ccccc23)NC(=O)[C@@H]([C@H](C)O)NC(=O)[C@@H](Cc2c[nH]cn2)NC(=O)[C@H](NC(=O)[C@@H](C)NC(=O)CN)CSSC[C@H](C(=O)N[C@H](C)C(=O)N[C@H](C)C(=O)NCC(=O)N[C@H](CCCCN)C(N)=O)NC(=O)[C@@H](C(C)C)NC(=O)[C@@H](CC(=O)O)NC(=O)[C@@H](CC(C)C)NC(=O)[C@@H](Cc2c[nH]cn2)NC(=O)[C@@H](CC(N)=O)NC1=O` [CX10C-86-GK] (H-G[dA][dC][dH][dT][dW][dD][dL][dN][dH][dL][dD][dV][dC][dA][dA]G[dK]-NH2; disulfide 3-14) gave a Kd of 350 µM. On to `CC[C@@H](C)[C@H]1NC(=O)[C@@H](CCCCN)NC(=O)[C@H](NC(=O)[C@@H](C)NC(=O)CN)CSSC[C@H](C(=O)N[C@H](C)C(=O)N[C@H](C)C(=O)NCC(=O)NCC(N)=O)NC(=O)[C@@H](CC(=O)O)NC(=O)[C@@H](Cc2c[nH]cn2)NC(=O)[C@@H](Cc2c[nH]c3ccccc23)NC(=O)[C@@H](Cc2c[nH]cn2)NC(=O)[C@@H](Cc2ccccc2)NC(=O)[C@@H](CC(C)C)NC(=O)[C@@H](CC(=O)O)NC(=O)[C@@H](Cc2c[nH]cn2)NC1=O` [CX10C-119-GG] (H-G[dA][dC][dK][dI][dH][dD][dL][dF][dH][dW][dH][dD][dC][dA][dA]GG-NH2; disulfide 3-14), for which the affinity, expressed as Kd, was 130 µM. Molecule `CC[C@@H](C)[C@H]1NC(=O)[C@@H](CCCCN)NC(=O)[C@H](NC(=O)[C@@H](C)NC(=O)CN)CSSC[C@H](C(=O)N[C@H](C)C(=O)N[C@H](C)C(N)=O)NC(=O)[C@@H](CC(=O)O)NC(=O)[C@@H](Cc2c[nH]cn2)NC(=O)[C@@H](Cc2c[nH]c3ccccc23)NC(=O)[C@@H](Cc2c[nH]cn2)NC(=O)[C@@H](Cc2ccccc2)NC(=O)[C@@H](CC(C)C)NC(=O)[C@@H](CC(=O)O)NC(=O)[C@@H](Cc2c[nH]cn2)NC1=O` [CX10C-119] (H-G[dA][dC][dK][dI][dH][dD][dL][dF][dH][dW][dH][dD][dC][dA][dA]-NH2; disulfide 3-14) registered a Kd of 100 µM. Regarding `CC[C@@H](C)[C@@H](N)C(=O)N[C@H](CO)C(=O)N[C@H](CC(C)C)C(=O)N1CCC[C@@H]1C(=O)N[C@@H](C(=O)N1CCC[C@@H]1C(=O)N[C@@H](C(=O)N[C@H](Cc1c[nH]c2ccccc12)C(=O)N[C@H](Cc1c[nH]c2ccccc12)C(=O)N1CCC[C@@H]1C(=O)N[C@H](CO)C(=O)N[C@@H](C(=O)NCC(=O)NCC(N)=O)[C@H](C)O)[C@H](C)O)[C@H](C)O` [X12-45-GG] (H-[dI][dS][dL][dP][dT][dP][dT][dW][dW][dP][dS][dT]GG-NH2), the affinity, expressed as Kd, was 11 µM.

By Kd is commonly meant the equilibrium constant for the complex coming apart. Low readings indicate tighter binding, high ones weaker binding.

The values are drawn from US10765754B2, “Compositions and methods related to inhibition of respiratory syncytial virus entry” (priority 2015, dated 2020).
